# Measurements taken from ChEMBL document CHEMBL1201862, “PubChem BioAssay data set” (2004).
#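 Method: 48-hour compound exposure of cells in 96-well plates, five concentrations, linear interpolation of endpoints. GI50 = concentration required for 50% inhibition of growth.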 The source made the active and inactive calls. Cut-off read from the data, not from the text of the source: active = GI50 up to about 1.1 µM and inactive = higher.
# Tests used:
# Experiment in all cases: NCI tumour cell line growth inhibition, 48 h
# OVCAR-4 = test system: OVCAR-4
# 786-0 = test system: 786-0
# SF-295 = test system: SF-295
# UACC-62 = test system: UACC-62
# DMS-273 = test system: DMS-273
# HOP-92 = test system: HOP-92
# CCRF-CEM = test system: CCRF-CEM
# HOP-62 = test system: HOP-62
# RXF 393 = test system: RXF 393
# A498 = test system: A498
# SF-268 = test system: SF-268
# KM12 = test system: KM12
# MOLT-4 = test system: MOLT-4
# LXFL 529 = test system: LXFL 529
# TK-10 = test system: TK-10
# XF498 = test system: XF498
# SK-OV-3 = test system: SK-OV-3
# UACC-257 = test system: UACC-257
# KM-20L2 = test system: KM-20L2
# SNB-78 = test system: SNB-78
# NCI-H226 = test system: NCI-H226
# SF-539 = test system: SF-539
# ACHN = test system: ACHN
# CAKI-1 = test system: CAKI-1
# HL-60 = test system: HL-60
# SN12C = test system: SN12C
# SNB-19 = test system: SNB-19
# UO-31 = test system: UO-31
# K562 = test system: K562
# HT-29 = test system: HT-29
# Malme-3M = test system: Malme-3M
# OVCAR-5 = test system: OVCAR-5
# OVCAR-8 = test system: OVCAR-8
# IGROV-1 = test system: IGROV-1
# RXF 631 = test system: RXF 631
# NCI-H23 = test system: NCI-H23
# A549 = test system: A549
# SW-620 = test system: SW-620
# DLD-1 = test system: DLD-1
# HCT-116 = test system: HCT-116
# DMS-114 = test system: DMS-114
# RPMI-8226 = test system: RPMI-8226
# U-251 = test system: U-251
# NCI-H460 = test system: NCI-H460
# HCT-15 = test system: HCT-15
# SK-MEL-28 = test system: SK-MEL-28
# SNB-75 = test system: SNB-75
# M14 = test system: M14
# OVCAR-3 = test system: OVCAR-3
# SK-MEL-5 = test system: SK-MEL-5
# HCC 2998 = test system: HCC 2998
# EKVX = test system: EKVX
# SK-MEL-2 = test system: SK-MEL-2
# M19-MEL = test system: M19-MEL
# NCI-H522 = test system: NCI-H522
# HOP-18 = test system: HOP-18
# SR = test system: SR
compound,measurement,setting,value
FC(F)(F)c1cc(C2SCc3nc4ccccc4n32)cc(C(F)(F)F)c1 (configuration not stated),GI50,OVCAR-4,> 100 µM (inactive)
same,GI50,786-0,11.4 µM (inactive)
same,GI50,SF-295,5 µM (inactive)
same,GI50,UACC-62,3.87 µM (inactive)
same,GI50,DMS-273,3.65 µM (inactive)
same,GI50,HOP-92,20.4 µM (inactive)
same,GI50,CCRF-CEM,4.51 µM (inactive)
same,GI50,HOP-62,5.5 µM (inactive)
same,GI50,RXF 393,14.8 µM (inactive)
same,GI50,A498,> 100 µM (inactive)
same,GI50,SF-268,44.9 µM (inactive)
same,GI50,KM12,4.68 µM (inactive)
same,GI50,MOLT-4,2.97 µM (inactive)
same,GI50,LXFL 529,> 100 µM (inactive)
same,GI50,TK-10,> 100 µM (inactive)
same,GI50,XF498,8.45 µM (inactive)
same,GI50,SK-OV-3,20.5 µM (inactive)
same,GI50,UACC-257,> 100 µM (inactive)
same,GI50,KM-20L2,3.37 µM (inactive)
same,GI50,SNB-78,36.7 µM (inactive)
same,GI50,NCI-H226,6.41 µM (inactive)
same,GI50,SF-539,24.6 µM (inactive)
same,GI50,ACHN,> 100 µM (inactive)
same,GI50,CAKI-1,4.24 µM (inactive)
same,GI50,HL-60,3.87 µM (inactive)
same,GI50,SN12C,2.9 µM (inactive)
same,GI50,SNB-19,76 µM (inactive)
same,GI50,UO-31,> 100 µM (inactive)
same,GI50,K562,2.97 µM (inactive)
same,GI50,HT-29,3.46 µM (inactive)
same,GI50,Malme-3M,2.92 µM (inactive)
same,GI50,OVCAR-5,> 100 µM (inactive)
same,GI50,OVCAR-8,10.3 µM (inactive)
same,GI50,IGROV-1,8.13 µM (inactive)
same,GI50,RXF 631,10.6 µM (inactive)
CCCCCCCCCC1C(C)c2c([nH]c3ccccc23)C2C(=O)N(c3ccccc3)C(=O)C21 (configuration not stated),GI50,OVCAR-4,5.9 µM (inactive)
same,GI50,NCI-H23,3.72 µM (inactive)
same,GI50,786-0,12.4 µM (inactive)
same,GI50,SF-295,15.4 µM (inactive)
same,GI50,UACC-62,18.3 µM (inactive)
same,GI50,DMS-273,12.5 µM (inactive)
same,GI50,A549,17.7 µM (inactive)
same,GI50,SW-620,35.7 µM (inactive)
same,GI50,CCRF-CEM,3.1 µM (inactive)
same,GI50,DLD-1,14.9 µM (inactive)
same,GI50,HOP-62,17.2 µM (inactive)
same,GI50,RXF 393,1.85 µM (inactive)
same,GI50,A498,19.2 µM (inactive)
same,GI50,HCT-116,2.94 µM (inactive)
same,GI50,DMS-114,14.7 µM (inactive)
same,GI50,RPMI-8226,3.83 µM (inactive)
same,GI50,U-251,13.8 µM (inactive)
same,GI50,NCI-H460,4.18 µM (inactive)
same,GI50,KM12,4.79 µM (inactive)
same,GI50,MOLT-4,2.54 µM (inactive)
same,GI50,HCT-15,11 µM
same,GI50,LXFL 529,35.6 µM (inactive)
same,GI50,TK-10,28 µM (inactive)
same,GI50,XF498,11.2 µM (inactive)
same,GI50,SK-OV-3,18.2 µM (inactive)
same,GI50,UACC-257,15.8 µM (inactive)
same,GI50,KM-20L2,12.1 µM (inactive)
same,GI50,SK-MEL-28,2.29 µM (inactive)
same,GI50,SNB-78,21.4 µM (inactive)
same,GI50,NCI-H226,12.2 µM (inactive)
same,GI50,SF-539,19.7 µM (inactive)
same,GI50,SNB-75,13.5 µM (inactive)
same,GI50,M14,13.1 µM (inactive)
same,GI50,OVCAR-3,3.43 µM (inactive)
same,GI50,ACHN,10.8 µM (inactive)
same,GI50,CAKI-1,14 µM (inactive)
same,GI50,HL-60,3.71 µM (inactive)
same,GI50,UO-31,13 µM (inactive)
same,GI50,K562,3.67 µM (inactive)
same,GI50,HT-29,10.8 µM (inactive)
same,GI50,Malme-3M,41.9 µM (inactive)
same,GI50,SK-MEL-5,17 µM (inactive)
same,GI50,HCC 2998,12.9 µM (inactive)
same,GI50,OVCAR-5,17.4 µM (inactive)
same,GI50,OVCAR-8,7.78 µM (inactive)
same,GI50,EKVX,54 µM (inactive)
same,GI50,IGROV-1,18.8 µM (inactive)
same,GI50,RXF 631,3.05 µM (inactive)
same,GI50,SK-MEL-2,16.8 µM (inactive)
O=C(Nc1ccc(Cl)cc1Cl)C(=O)Nn1c(S)nc2ccccc2c1=O,GI50,786-0,> 100 µM (inactive)
same,GI50,M19-MEL,> 100 µM (inactive)
same,GI50,DMS-273,> 100 µM (inactive)
same,GI50,A549,> 100 µM (inactive)
same,GI50,CCRF-CEM,> 100 µM (inactive)
same,GI50,RXF 393,> 100 µM (inactive)
same,GI50,HCT-116,> 100 µM (inactive)
same,GI50,DMS-114,> 100 µM (inactive)
same,GI50,RPMI-8226,> 100 µM (inactive)
same,GI50,U-251,> 100 µM (inactive)
same,GI50,SF-268,> 100 µM (inactive)
same,GI50,NCI-H460,> 100 µM (inactive)
same,GI50,MOLT-4,> 100 µM (inactive)
same,GI50,HCT-15,> 100 µM
same,GI50,LXFL 529,> 100 µM (inactive)
same,GI50,SK-OV-3,> 100 µM (inactive)
same,GI50,SK-MEL-28,> 100 µM (inactive)
same,GI50,SNB-78,> 100 µM (inactive)
same,GI50,M14,> 100 µM (inactive)
same,GI50,OVCAR-3,> 100 µM (inactive)
same,GI50,HL-60,> 100 µM (inactive)
same,GI50,NCI-H522,> 100 µM (inactive)
same,GI50,UO-31,> 100 µM (inactive)
same,GI50,K562,> 100 µM (inactive)
same,GI50,Malme-3M,> 100 µM (inactive)
same,GI50,HCC 2998,> 100 µM (inactive)
same,GI50,HOP-18,> 100 µM (inactive)
same,GI50,RXF 631,> 100 µM (inactive)
same,GI50,SK-MEL-2,> 100 µM (inactive)
same,GI50,SR,> 100 µM (inactive)
O=C1c2c(O)cc(O)cc2OC(c2ccc(O)cc2O)C1O (configuration not stated),GI50,NCI-H23,57.5 µM (inactive)
same,GI50,SF-295,56.4 µM (inactive)
same,GI50,M19-MEL,29.9 µM (inactive)
same,GI50,A549,79.6 µM (inactive)
same,GI50,DLD-1,50.9 µM (inactive)
same,GI50,DMS-114,32.5 µM (inactive)
same,GI50,NCI-H460,57.8 µM (inactive)
same,GI50,KM12,60.4 µM (inactive)
same,GI50,MOLT-4,28.6 µM (inactive)
same,GI50,LXFL 529,36.1 µM (inactive)
same,GI50,TK-10,57.4 µM (inactive)
same,GI50,KM-20L2,54 µM (inactive)
same,GI50,SNB-78,42.1 µM (inactive)
same,GI50,CAKI-1,59.3 µM (inactive)
same,GI50,HOP-18,31.8 µM (inactive)
same,GI50,EKVX,60.8 µM (inactive)
same,GI50,RXF 631,40.5 µM (inactive)
same,GI50,SR,25.7 µM (inactive)
